Experimental data from patent US20150018411A1, “COMPOUNDS AS PPAR BETA/DELTA INHIBITORS FOR TREATING PPAR BETA/DELTA-MEDIATED DISEASES” (PHILIPPS-UNIVERSITAT MARBURG, priority 2011, published 2015).

Key:
[1] = system: ANGPTL4 gene expression; test: Stimulus-induced ANGPTL4 expression in human fibroblasts; format: cell-based
[2] = molecular target: T1, GST-PPAR beta/delta LBD (Homo sapiens, UniProt Q03181); test: Inhibition of agonist L165041-induced recruitment of co-activator peptide C33, TR-FRET; format: biochemical; settings: 1 μM test substance, increasing concentrations of agonist L165041
T1 construct: GST-PPAR beta/delta LBD (GST=glutathione S-transferase); purchased Invitrogen, Darmstadt, Germany
T1 sequence (Q03181 211-439 limits assumed): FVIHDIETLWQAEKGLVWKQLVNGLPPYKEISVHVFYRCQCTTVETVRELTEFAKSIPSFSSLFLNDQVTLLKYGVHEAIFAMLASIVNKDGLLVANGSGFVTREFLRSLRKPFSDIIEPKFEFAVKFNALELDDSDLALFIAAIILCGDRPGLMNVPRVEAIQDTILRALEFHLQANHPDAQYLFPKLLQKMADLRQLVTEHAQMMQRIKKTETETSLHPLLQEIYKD
Method: FIG. 3: Inhibition of agonist-induced co-activator peptide binding (A) and inverse agonist compound 1-induced corepressor peptide binding (B) by the substance of this invention compound 5. • The recruitment of the co-activator or corepressor peptide, respectively, is determined in a TR-FRET assay. As co-activator peptide, C33 is utilized, as corepressor peptide SMRT-ID2. The experiment is performed with a constant concentration of 1 μM of the substance of this invention compound 5 and increasing concentrations of the agonist L165041 (A) or the inverse agonist compound 1 (B), respectively.
C) The inhibition of the recruitment of co-activator peptide C33 known to the expert in this field mediated by PPAR beta/delta agonist L165,041 or the inhibition of the inverse agonist inventive compound 1-mediated binding of the corepressor peptide SMRT-ID2 to GST-PPAR beta/delta LBD by the substance of this invention compound 5 (1 μM) was also determined by TR-FRET measurements. Both is shown in FIGS. 3 A and B in dependency of the concentration of the agonist (A) and the inverse agonist (B), respectively.

inhibition of agonist-induced recruitment of co-activator peptide C33 [2] | SMILES | induction of ANGPTL4 expression by TGF-beta1, TGF-beta2, dexamethasone or TPA [1]
 | CCCCCCNc1ccc(NS(=O)(=O)c2ccsc2C(=O)OC)c(OC)c1 [compound 1, methyl 3-(N-(4-(hexylamino)-2-methoxyphenyl)sulfamoyl)thiophene-2-carboxylate] | significantly be reduced
prevents | COC(=O)c1sccc1S(=O)(=O)Nc1ccc(NC(C)(C)C)cc1OC [compound 5, methyl 3-(N-(4-(tert-butylamino)-2-methoxyphenyl)sulfamoyl)thiophene-2-carboxylate] | 
